From publication PMC9582194, “The effect of helix-inducing constraints and downsizing upon a transcription block survival-derived functional cJun antagonist” (Cell Reports. Physical Science, 2022)
Positions of bridges follow the written chain, without caps; N, C: chain ends. Residues, ends and D or L forms follow the SMILES beside them. No end group written: not given here.

B1: HingeW (HW1) (peptide)
peptide: MASLEQRAEELARENEELEKEAEELVVEEDVLEEEIEQLEERNYALRKEIEDLQKQLEKLGAP
notes: TBS-selected 63-mer (acidic extension plus leucine zipper) with MAS N-cap and GAP C-cap; not shown: 6xHis, C-terminal, kept
B2: HW8 (peptide)
peptide: Ac-EAEELVVEEDVLEEEIEQLEERNYALRKEIEDLQKQ-NH2
notes: truncation NΔ20 CΔ7 of HW1; source: synthetic peptide (Fmoc SPPS, RP-HPLC purified)

Legend:
[1] = molecular target: T1, cJun (Homo sapiens, UniProt P05412); test: CD thermal denaturation of peptide-cJun heterodimers (Tm); type: binding; details: for Tm of peptide-cJun heterodimer: CD ellipticity at 222 nm, 1-90 °C, peptide (5 μM)/cJun (5 μM), 20 mM potassium phosphate, 150 mM potassium fluoride, 2 mM TCEP pH 7.4, two-state fit, duplicate experiments, ± one SD; for ΔTm of cJun heterodimer due to lactamization: cyclized versus its linear (non-lactamized) counterpart
T1 construct: The same 60 amino acid cJun construct, encompassing the entire bZIP domain, was used for all experiments
T1 sequence (P05412 252-315 limits assumed): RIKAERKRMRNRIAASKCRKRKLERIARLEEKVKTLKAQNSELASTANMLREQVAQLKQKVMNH
Method: (§1) The precise nature of the interaction between the cJun DBD and the rationally designed acidic domain of HW1 is unknown. HW1 was, therefore, iteratively truncated from the N terminus (HW2–6) to investigate the effect on cJun binding and cJun/TRE DNA antagonism (Table 1). Peptide fraction helicity (fH) was determined by quantifying the circular dichroism (CD) signal at 222 nm of peptide-only samples (Figure S1). Thermal denaturation experiments were then used to determine the melting temperature (Tm) of peptide-cJun heterodimers, which serves as an approximate measure of target engagement. CD was also used to investigate the functional activity of peptides in antagonizing the cJun/TRE DNA interaction. […] This provides a clear and direct measurement of the proportion of DNA bound to cJun. As antagonist peptide concentration was increased, the peak shifted to overlay with that of free TRE-DNA (Figure S4). For each peptide, the data were fit to a Hill equation to determine half-maximal inhibitory concentration (IC50) values, specific to these assay conditions, providing a clear comparative measure of antagonism. The same 60 amino acid cJun construct, encompassing the entire bZIP domain, was used for all experiments regardless of antagonist peptide length.
Figure 2 Iterative N-terminal truncation of HingeW reduces cJun binding and antagonism (A) Thermal denaturation profiles for iteratively truncated peptide (5 μM)/cJun (5 μM) heterodimer samples. (B) CD antagonism data produced by monitoring the shift in a DNA specific peak to provide a direct readout of cJun-DNA binding. Peptides are added at the indicated concentrations to a pre-incubated mixture of cJun (20 μM) and TRE DNA (5 μM). Data points were averaged from triplicate experiments, and error bars indicate one SD. The data were fitted to a Hill equation to determine IC50 values. Some higher peptide concentration data points for HW6 and HW9 are not shown in this plot for clarity.

[2] = Peptide fraction helicity by CD at 222 nm, peptide-only samples; type: physicochemical; details: for fH, peptide fraction helicity: CD signal at 222 nm of peptide-only samples, pH 7.4 phosphate/KF/TCEP buffer, duplicate experiments
Method: as §1

[3] = molecular target: T2, cJun (60 amino acid construct encompassing the entire bZIP domain) (UniProt P05412 252-315); test: cell-based or functional assay
T2 sequence (P05412 252-315): as the sequence (P05412 252-315 limits assumed) above

[4] = molecular target: T2, cJun (60 amino acid construct …); test: ITC; antagonist peptide at 25–200 μM injected into cJun at 2.5–20 μM in the cell, 25°C; 20 mM potassium phosphate, 150 mM potassium fluoride, 2 mM TCEP, pH 7.4; one-site binding model; two independent experiments; details: both partners purified
[5] = molecular target: T2, cJun (60 amino acid construct …); test: CD thermal denaturation; peptide (5 μM) with cJun (5 μM); ellipticity at 222 nm, 1°C to 90°C; 20 mM potassium phosphate, 150 mM potassium fluoride, 2 mM TCEP, pH 7.4; two-state fit gives the Tm of the peptide-cJun heterodimer; duplicate experiments; details: both partners purified

Row | Molecule | Tm of peptide-cJun heterodimer [1] [°C] | fH, peptide fraction helicity [2] [%] | further results
1 | Ac-EAEELVVEEDVLEEEIEQLEERNYALRKEIEDL-NH2 [HW9] | 44.8 ± 1.2 | 32.8 | –
2 | Ac-EAEELVVEEDVLEEEIEQLEEKNKALKDEIEDLQKQY-NH2 [HW26] | 56.2 ± 1.3 | 36.0 | –
3 | CC[C@H](C)[C@H](NC(=O)[C@H](CCC(=O)O)NC(=O)[C@H](CCCCN)NC(=O)[C@H](CCCNC(=N)N)NC(=O)[C@H](CC(C)C)NC(=O)[C@H](C)NC(=O)[C@H](Cc1ccc(O)cc1)NC(=O)[C@H](CC(N)=O)NC(=O)[C@H](CCCNC(=N)N)NC(=O)[C@H](CCC(=O)O)NC(=O)[C@H](CCC(=O)O)NC(=O)[C@H](CC(C)C)NC(=O)[C@H](CCC(N)=O)NC(=O)[C@H](CCC(=O)O)NC(=O)[C@@H](NC(=O)[C@H](CCC(=O)O)NC(=O)[C@H](CCC(=O)O)NC(=O)[C@H](CCC(=O)O)NC(=O)[C@H](CC(C)C)NC(=O)[C@@H](NC(=O)[C@H](CC(=O)O)NC(=O)[C@H](CCC(=O)O)NC(=O)[C@H](CCC(=O)O)NC(=O)[C@@H](NC(=O)[C@@H](NC(=O)[C@H](CC(C)C)NC(=O)[C@@H]1CC(=O)NCCCC[C@H](NC(C)=O)C(=O)N[C@@H](CCC(=O)O)C(=O)N[C@@H](C)C(=O)N[C@@H](CCC(=O)O)C(=O)N1)C(C)C)C(C)C)C(C)C)[C@@H](C)CC)C(=O)N[C@@H](CCCCN)C(=O)N[C@@H](CC(=O)O)C(=O)N[C@@H](CC(C)C)C(=O)N[C@@H](CCC(N)=O)C(=O)N[C@@H](CC(=O)O)C(=O)N[C@@H](CCC(N)=O)C(N)=O [HW19] (Ac-KEAEDLVVEEDVLEEEIEQLEERNYALRKEIKDLQDQ-NH2; lactam 1-5 (inferred)) | 58.5 ± 1.0 | 40.1 | change in fH due to lactamization ([2]; cyclized versus its linear counterpart): ~1%
4 | Ac-EAEELVVEEKVLEDEIEQLEERNYALRKEIEDLQKQ-NH2 [HW22] | 54.9 ± 1.2 | 37.2 | –
5 | Ac-LEKEAEELVVEEDVLEEEIEQLEERNYALRKEIEDLQKQLEKL-NH2 [HW3] | 67.9 ± 0.9 | 38.3 | –
6 | EDVLEEEIEQLEERNYALRKEIEDLQKQLEKLGAP-NH2 (C-terminus assumed) [HW6] | 55.1 ± 1.1 | 38.0 | –
7 | Ac-LVVEEDVLEEEIEQLEERNYALRKEIEDLQKQLEDL-NH2 [HW12] | 62.1 ± 1.4 | 43.0 | –
8 | Ac-LVVEEDVLEEEIEQLEEKNKALKDEIEDLQKQLEKLY-NH2 [HW10] | 64.3 ± 1.3 | 45.6 | –
9 | Ac-KEAEDLVVEEDVLEEEIEQLEERNYALRKEIKDLQDQ-NH2 [HW18] | 56.5 ± 1.6 | 38.7 | –
10 | Ac-LARENEELEKEAEELVVEEDVLEEEIEQLEERNYALRKEIEDLQKQLEKL-NH2 [HW2] | 68.5 ± 1.1 | 32.8 | –
11 | CC[C@H](C)[C@H](NC(=O)[C@H](CCC(=O)O)NC(=O)[C@H](CCCCN)NC(=O)[C@H](CCCNC(=N)N)NC(=O)[C@H](CC(C)C)NC(=O)[C@H](C)NC(=O)[C@H](Cc1ccc(O)cc1)NC(=O)[C@H](CC(N)=O)NC(=O)[C@H](CCCNC(=N)N)NC(=O)[C@H](CCC(=O)O)NC(=O)[C@H](CCC(=O)O)NC(=O)[C@H](CC(C)C)NC(=O)[C@H](CCC(N)=O)NC(=O)[C@H](CCC(=O)O)NC(=O)[C@@H](NC(=O)[C@H](CCC(=O)O)NC(=O)[C@H](CCC(=O)O)NC(=O)[C@H](CCC(=O)O)NC(=O)[C@H](CC(C)C)NC(=O)[C@@H](NC(=O)[C@H](CC(=O)O)NC(=O)[C@H](CCC(=O)O)NC(=O)[C@H](CCC(=O)O)NC(=O)[C@@H]1CC(=O)NCCCC[C@H](NC(=O)[C@H](C)NC(=O)[C@H](CCC(=O)O)NC(C)=O)C(=O)N[C@@H](CCC(=O)O)C(=O)N[C@@H](CC(C)C)C(=O)N[C@@H](C(C)C)C(=O)N1)C(C)C)[C@@H](C)CC)C(=O)N[C@@H](CCC(=O)O)C(=O)N[C@@H](CC(=O)O)C(=O)N[C@@H](CC(C)C)C(=O)N[C@@H](CCC(N)=O)C(=O)N[C@@H](CCCCN)C(=O)N[C@@H](CCC(N)=O)C(N)=O [HW21] (Ac-EAKELVDEEDVLEEEIEQLEERNYALRKEIEDLQKQ-NH2; lactam 3-7) | – | – | ΔTm of cJun heterodimer due to lactamization [1]: ~2 °C
12 | Ac-EAKELVDEEDVLEEEIEQLEERNYALRKEIEDLQKQ-NH2 [HW20] | 57.5 ± 1.1 | 36.9 | –
13 | Ac-EAEELVVEEDVLEEEIEQLEERNYALRKEIEDLQ-NH2 [HW16] | 53.8 ± 5.3 | 31.2 | –
14 | CC[C@H](C)[C@H](NC(=O)[C@H](CCC(=O)O)NC(=O)[C@H](CCCCN)NC(=O)[C@H](CCCNC(=N)N)NC(=O)[C@H](CC(C)C)NC(=O)[C@H](C)NC(=O)[C@H](Cc1ccc(O)cc1)NC(=O)[C@H](CC(N)=O)NC(=O)[C@H](CCCNC(=N)N)NC(=O)[C@H](CCC(=O)O)NC(=O)[C@H](CCC(=O)O)NC(=O)[C@H](CC(C)C)NC(=O)[C@H](CCC(N)=O)NC(=O)[C@H](CCC(=O)O)NC(=O)[C@@H](NC(=O)[C@H](CCC(=O)O)NC(=O)[C@@H]1CC(=O)NCCCC[C@H](NC(=O)[C@H](CCC(=O)O)NC(=O)[C@H](CCC(=O)O)NC(=O)[C@@H](NC(=O)[C@@H](NC(=O)[C@H](CC(C)C)NC(=O)[C@H](CCC(=O)O)NC(=O)[C@H](CCC(=O)O)NC(=O)[C@H](C)NC(=O)[C@H](CCC(=O)O)NC(C)=O)C(C)C)C(C)C)C(=O)N[C@@H](C(C)C)C(=O)N[C@@H](CC(C)C)C(=O)N[C@@H](CCC(=O)O)C(=O)N1)[C@@H](C)CC)C(=O)N[C@@H](CCC(=O)O)C(=O)N[C@@H](CC(=O)O)C(=O)N[C@@H](CC(C)C)C(=O)N[C@@H](CCC(N)=O)C(=O)N[C@@H](CCCCN)C(=O)N[C@@H](CCC(N)=O)C(N)=O [HW23] (Ac-EAEELVVEEKVLEDEIEQLEERNYALRKEIEDLQKQ-NH2; lactam 10-14) | – | – | ΔTm of cJun heterodimer due to lactamization [1]: ~9 °C
15 | Ac-EAEELVVEEDVLEEEIKQLEDRNYALRKEIEDLQKQ-NH2 [HW24] | 55.5 ± 1.7 | 37.0 | –
16 | Ac-EAEELVVEEDVLEEEIEQLEERNYALRKEIKDLQDQ-NH2 [HW28] | 55.6 ± 1.2 | 35.0 | –
17 | B1 | – | – | IC50 CD: peptide added to pre-incubated cJun (20 μM) and TRE DNA (5 μM); blocks cJun/TRE DNA binding [3]: 13.4 µM; Kd [4]: 0.21 nM; dH [4]: -130 kJ/mol; stoichiometry N [4]: 0.93; Tm of the peptide-cJun heterodimer [5]: 71.2 °C
18 | B2 | – | – | IC50 CD: peptide added to pre-incubated cJun (20 μM) and TRE DNA (5 μM); blocks cJun/TRE DNA binding [3]: 82.1 µM; Kd [4]: 1100 nM; dH [4]: -25.1 kJ/mol; stoichiometry N [4]: 0.95; Tm of the peptide-cJun heterodimer [5]: 57.1 °C
